Data reported in ChEMBL document CHEMBL1133927, “Antimalarial t-butylperoxyamines” (Bioorg Med Chem Lett, 2001).
Active and inactive are the calls of the source. The rule behind the calls is not given here.

Legend:
Mus musculus [1] = assay: Mean survival time of mice (Mus musculus) infected with Plasmodium berghei after administration of compound at the dose of 40 mg/kg; type: functional
Mus musculus [2] = assay: Mean survival time of mice (Mus musculus) infected with Plasmodium berghei after administration of compound at the dose of 80 mg/kg; type: functional
Mus musculus [3] = assay: Mean survival time of mice (Mus musculus) infected with Plasmodium berghei after administration of compound at the dose of 160 mg/kg; type: functional
Mus musculus [4] = assay: Mean survival time of mice (Mus musculus) infected with Plasmodium berghei after administration of compound at the dose of 20 mg/kg; type: functional
Mus musculus [5] = assay: In vivo antimalarial activity against Plasmodium berghei in mice (Mus musculus); Inactive; type: functional, organism-based
Plasmodium falciparum [6] = assay: (§1) In vitro schizont maturation inhibition for chloroquine-sensitive Plasmodium falciparum FJB D9; type: functional, organism-based
Plasmodium falciparum [7] = assay: (§2) In vitro schizont maturation inhibition for chloroquine-sensitive Plasmodium falciparum FSH 14; type: functional, organism-based
Plasmodium falciparum [8] = assay: (§3) In vitro total parasite growth inhibition for chloroquine-sensitive Plasmodium falciparum FJB D9; type: functional, organism-based
Plasmodium falciparum [9] = assay: (§4) In vitro total parasite growth inhibition for chloroquine-sensitive Plasmodium falciparum FSH 14; type: functional, organism-based
Plasmodium falciparum [10] = assay: as §1; type: functional
Plasmodium falciparum [11] = assay: as §2; type: functional
Plasmodium falciparum [12] = assay: as §3; type: functional
Plasmodium falciparum [13] = assay: as §4; type: functional
Mus musculus [14] = assay: In vivo antimalarial activity against Plasmodium berghei in mice (Mus musculus); Active at 80 and 160 mg/kg; type: functional, organism-based; set-up: dose 160 mg/kg
Mus musculus [15] = assay: In vivo antimalarial activity against Plasmodium berghei in mice (Mus musculus); Active at 160 mg/kg; type: functional, organism-based; set-up: dose 160 mg/kg
Mus musculus [16] = assay: In vivo antimalarial activity against Plasmodium berghei in mice (Mus musculus); Active from 40 mg/kg; type: functional, organism-based; set-up: dose 40 mg/kg

SMILES | Mean survival time (Mus musculus [1]) | Mean survival time (Mus musculus [2]) | Mean survival time (Mus musculus [3]) | Mean survival time (Mus musculus [4]) | Activity (Mus musculus [5]) | IC50 (Plasmodium falciparum [6]) | IC50 (Plasmodium falciparum [7]) | IC50 (Plasmodium falciparum [8]) | IC50 (Plasmodium falciparum [9]) | IC90 (Plasmodium falciparum [10]) | IC90 (Plasmodium falciparum [11]) | IC90 (Plasmodium falciparum [12]) | IC90 (Plasmodium falciparum [13]) | Activity (Mus musculus [14]) | Activity (Mus musculus [15]) | Activity (Mus musculus [16])
CC(C)(C)OOCN(Cc1ccccc1)Cc1ccco1 | 7.2 days | 10.8 days | 12 days | 6.4 days | inactive | 1.45 uM well-1 | 1.35 uM well-1 | 2.1 uM well-1 | 2.25 uM well-1 | 2.8 uM well-1 | 4.5 uM well-1 | 5.5 uM well-1 | 5.4 uM well-1 | – | – | –
CCN(CC)COOC(C)(C)C | 8.4 days | 9.4 days | 12.2 days | 7.2 days | inactive | > 25 uM well-1 | > 25 uM well-1 | > 25 uM well-1 | > 25 uM well-1 | >25 uM well-1 | >25 uM well-1 | >25 uM well-1 | >25 uM well-1 | – | – | –
CC(C)(C)OOCN(CCO)CCO | 11.6 days | 12.8 days | 14 days | 10.2 days | – | 22 uM well-1 | 10 uM well-1 | > 25 uM well-1 | > 25 uM well-1 | >25 uM well-1 | >25 uM well-1 | >25 uM well-1 | >25 uM well-1 | Active | – | –
CC(C)(C)OOCN(Cc1ccccc1)Cc1cccs1 | 6.6 days | 10.2 days | 14 days | 5.8 days | – | 0.9 uM well-1 | 0.5 uM well-1 | 2.7 uM well-1 | 2.2 uM well-1 | 6 uM well-1 | 11.5 uM well-1 | 4.8 uM well-1 | 12 uM well-1 | – | Active | –
C[C@@H]1CC[C@H]2[C@@H](C)C(=O)O[C@@H]3O[C@@]4(C)CC[C@@H]1[C@]32OO4 [ARTEMISININ] | – | – | – | 10.8 days | – | 0.01 uM well-1 | 0.01 uM well-1 | 0.015 uM well-1 | 0.01 uM well-1 | 0.028 uM well-1 | 0.028 uM well-1 | 0.03 uM well-1 | 0.029 uM well-1 | – | – | Active
CC(C)(C)OOCN1CCCCC1 | 6.6 days | 8.2 days | 10.2 days | 5.2 days | inactive | 3.6 uM well-1 | 2.9 uM well-1 | 5.5 uM well-1 | 5 uM well-1 | 22.5 uM well-1 | 24 uM well-1 | >25 uM well-1 | >25 uM well-1 | – | – | –
